In this assay the test system is murine splenocytes. In words: Ex vivo murine splenocytes proliferation assay (Alamar Blue), Example I. The assay is classed as cell-based, BALB/c mice. Conditions: for Stimulation index, proliferation of murine splenocytes in the presence of Concavanalin A: ConA 0.5 μg/mL; for Stimulation index, proliferation of resting murine splenocytes: without ConA. On the procedure: Ex vivo murine splenocytes proliferation assay. The splenocytes were isolated from 6- to 12-weeks-old female BALB/c mice (Charles River, St-Constant, QC, Canada) and cultured in the absence and presence of suboptimal concentration of ConA (0.5 μg/mL). The peptides were solubilized in complete RPMI medium, agitated overnight at 4° C. then the solutions were adjusted to pH 7. Thereafter, the peptide solutions were added at various final concentrations (10-2000 μg/mL, protein basis) to the wells of 96-well round-bottomed microplates, which were incubated at 37° C. at 80% relative humidity in a 5% CO2 atmosphere for 72 h (with ConA) or 96 h (without ConA). Cell proliferation was evaluated by the reduction of the fluorochrome Alamar Blue™ (BioSource international, Camarillo, Calif., USA), which was added into the wells for the last 24 h of the incubation periods. The fluorescence of the supernatants was monitored at an excitation wavelength of 560 nm and an emission wavelength of 590 nm using a fluorometer (Fluoroscan Ascent, Thermo Electron Inc., Milford, Mass., USA). The assays were performed in triplicate (three wells per sample) and data are expressed as stimulation indices (SI), and calculated using the following equations: […]

Marks after values point to notes of the source that are not given here.

Consider RELKDLK [α-La f10-16], for which the “Stimulation index, proliferation of murine splenocytes in the presence of Concavanalin A” value (shortened to “Stimulation index … of Concavanalin A”) by setting is: (peptide 10 μg mL^−1, 72 h) 1.85; (peptide 100 μg mL^−1, 72 h) 1.95; (peptide 500 μg mL^−1, 72 h) 1.95; (peptide 1000 μg mL^−1, 72 h) 2.08; (peptide 2000 μg mL^−1, 72 h) 2.26**. Also, the “Stimulation index, proliferation of resting murine splenocytes” value reads like this: (peptide 10 μg mL^−1, 96 h) 1.06; (peptide 100 μg mL^−1, 96 h) 1.19; (peptide 500 μg mL^−1, 96 h) 1.47**; (peptide 1000 μg mL^−1, 96 h) 1.81**; (peptide 2000 μg mL^−1, 96 h) 1.97**.

With IDALNENK [β-Lg f84-91], the “Stimulation index … of Concavanalin A” value by setting is: (peptide 10 μg mL^−1, 72 h) 2.20; (peptide 100 μg mL^−1, 72 h) 2.27; (peptide 500 μg mL^−1, 72 h) 2.24; (peptide 1000 μg mL^−1, 72 h) 2.18; (peptide 2000 μg mL^−1, 72 h) 2.16. The “Stimulation index, proliferation of resting murine splenocytes” value is on record as 0.99 (peptide 10 μg mL^−1, 96 h); 1.08 (peptide 100 μg mL^−1, 96 h); 1.20* (peptide 500 μg mL^−1, 96 h); 1.22* (peptide 1000 μg mL^−1, 96 h); 1.27** (peptide 2000 μg mL^−1, 96 h).

Consider “ALPMHIR (listed as Homo sapiens) [β-Lg f142-148]”, for which the “Stimulation index … of Concavanalin A” value is, setting by setting: (peptide 10 μg mL^−1, 72 h) 2.32; (peptide 100 μg mL^−1, 72 h) 2.30; (peptide 500 μg mL^−1, 72 h) 2.36; (peptide 1000 μg mL^−1, 72 h) 2.49**; (peptide 2000 μg mL^−1, 72 h) 2.63**. Further, the “Stimulation index, proliferation of resting murine splenocytes” value by setting is: (peptide 10 μg mL^−1, 96 h) 1.16; (peptide 100 μg mL^−1, 96 h) 1.17; (peptide 500 μg mL^−1, 96 h) 1.37**; (peptide 1000 μg mL^−1, 96 h) 1.61**; (peptide 2000 μg mL^−1, 96 h) 1.73**.

On to “EILLQK (UniProt P02754 71-76, looked up, fragment) [β-Lg f55-60]”, for which the “Stimulation index … of Concavanalin A” value by setting is: (peptide 10 μg mL^−1, 72 h) 1.96; (peptide 100 μg mL^−1, 72 h) 1.92; (peptide 500 μg mL^−1, 72 h) 1.98; (peptide 1000 μg mL^−1, 72 h) 1.93; (peptide 2000 μg mL^−1, 72 h) 2.34**. Besides, the “Stimulation index, proliferation of resting murine splenocytes” value is, setting by setting: (peptide 10 μg mL^−1, 96 h) 1.05; (peptide 100 μg mL^−1, 96 h) 1.09; (peptide 500 μg mL^−1, 96 h) 1.16; (peptide 1000 μg mL^−1, 96 h) 1.54**; (peptide 2000 μg mL^−1, 96 h) 1.54**.

In the case of “VAGTWY (UniProt P02754 31-36, looked up, fragment) [β-Lg f15-20]”, the “Stimulation index … of Concavanalin A” value came out at 1.65 (peptide 10 μg mL^−1, 72 h); 1.71 (peptide 100 μg mL^−1, 72 h); 1.67 (peptide 500 μg mL^−1, 72 h); 1.78 (peptide 1000 μg mL^−1, 72 h); 1.77 (peptide 2000 μg mL^−1, 72 h). In addition, the “Stimulation index, proliferation of resting murine splenocytes” value (peptide 10 μg mL^−1, 96 h) worked out at 1.01; the “Stimulation index, proliferation of resting murine splenocytes” value (peptide 100 μg mL^−1, 96 h) was 1.12*; the “Stimulation index, proliferation of resting murine splenocytes” value (peptide 500 μg mL^−1, 96 h) was 1.46**; the “Stimulation index, proliferation of resting murine splenocytes” value (peptide 1000 μg mL^−1, 96 h) is given as 1.65**; the “Stimulation index, proliferation of resting murine splenocytes” value (peptide 2000 μg mL^−1, 96 h) was 1.42**.

The record behind these values is US20090297545A1, “IMMUNOMODULATORY DAIRY PEPTIDES AND USES THEREOF” (Universite Laval, priority 2008, published 2009).
